# Source: PMC5431883, “Enhancing Specific Disruption of Intracellular Protein Complexes by Hydrocarbon Stapled Peptides Using Lipid Based Delivery” (Scientific Reports, 2017)
# Positions of bridges follow the written chain, without caps; N, C: chain ends. Non-standard residues stand in square brackets, D forms with d. Residues, ends and D or L forms follow the SMILES beside them. R8 = C=CCCCCCC[C@@](C)(N)C(=O)O; S5 = C=CCCC[C@](C)(N)C(=O)O; Ahx = NCCCCCC(=O)O
# Biological target: T1, Mdm2 (1-125) (Homo sapiens, UniProt Q00987)
# T1 construct: Purified MDM2 (1-125) protein was titrated against 50 nM carboxyfluorescein (FAM)-labeled; GST (N, cleaved yes); made in house; host or cells: E. coli BL21 DE3 (pGEX-6P-1)
# Test: Mdm2 competitive fluorescence anisotropy assay (FAM-labeled 12/1 peptide displacement); note: 250 nM MDM2
# Assay type: binding
# Details: read-out: Kd (apparent dissociation constant, competitive fluorescence anisotropy)
# Description: analyzed with SDS page gel and concentrated using a Centricon (3.5 kDa MWCO) concentrator, Millipore. Mdm2 protein samples were then dialyzed into a buffer solution containing 20mM Bis-Tris, pH 6.5, 0.05M NaCl with 1mM DTT and loaded onto a monoS column pre-equilibrated in buffer A (20mM Bis-Tris, pH 6.5, 1mM DTT). The column was then washed in 6 column volumes of buffer A and bound protein was eluted with a linear gradient of 1M NaCL over 25 column volumes. Protein fractions were analyzed with SDS page gel and concentrated using a Centricon (3.5 kDa MWCO) concentrator, Millipore.
# Protein concentration was determined using A280 using an extinction coefficients […]
# Mdm2 Competitive Fluorescence Anisotropy Assay and Kd Determination […]
# Dissociation constants for titration of MDM2 against […]
# equation shown below:25,26
# [P] is the protein concentration (MDM2), [L] is the labeled peptide concentration, r is the anisotropy measured, r0 is the anisotropy of the free peptide, rb is the anisotropy of the MDM2– FAM-labeled peptide complex, Kd is the dissociation constant, [L]t is the total FAM labeled
# (1 picture or pasted object on this page, not shown here) […]
# peptide concentration, and [P]t is the total MDM2 concentration. […]
# respective competing ligands in subsequent competition assays.
# Apparent Kd values were determined for a variety of molecules via competitive fluorescence anisotropy experiments. Titrations were carried out with the concentration of MDM2 held constant […]
# The competing molecules were then titrated against the complex of the FAM-labeled peptide and protein. Apparent Kd values were determined by fitting the experimental data to the equations shown below:26,27 […]
# [L]st and [L]t denote labeled ligand and total unlabeled ligand input concentrations, respectively.
# Kd2 is the dissociation constant of the interaction between the unlabeled ligand and the protein. In […]
# all competitive types of experiments, it is assumed that [P]t > [L]st, otherwise considerable amounts of free labeled ligand would always be present and would interfere with measurements. Kd1 is the […]
# experimentally determined as described in the previous paragraph. The FAM-labeled peptide was dissolved in dimethyl sulfoxide (DMSO) at 1 mM and diluted into experimental buffer. Readings were carried out with an Envision Multilabel Reader (PerkinElmer). Experiments were carried out […]
# Tween 20 buffer. All titrations were carried out in triplicate. Curve-fitting was carried out using […]
# Negative control titrations of the ligands under investigation were also carried out with the fluorescently labeled peptide (in the absence of MDM2) to ensure no interactions were occurring between the ligands and FAM-labeled peptide. […]
# which would otherwise indicate an unintended interaction between the ligand and the FAM-labeled peptide to be displaced from the MDM2 binding site. […]
# T1 sequence (Q00987 1-125): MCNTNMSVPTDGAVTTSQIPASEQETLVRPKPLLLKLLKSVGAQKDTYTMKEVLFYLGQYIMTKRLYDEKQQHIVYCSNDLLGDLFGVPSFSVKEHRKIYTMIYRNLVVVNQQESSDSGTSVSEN
row,SMILES,Kd
1,CC(=O)N[C@@H](CCCCN)C(=O)N[C@@H](CCCCN)C(=O)NCCCCCC(=O)N[C@H](C(=O)N[C@@H](CO)C(=O)N[C@@H](Cc1ccccc1)C(=O)N[C@]1(C)CCCCCCC=CCCC[C@@](C)(C(=O)N[C@@H](CCC(=O)O)C(=O)N[C@@H](CC(N)=O)C(=O)N[C@@H](Cc2ccc(O)cc2)C(N)=O)NC(=O)[C@H](CC(C)C)NC(=O)[C@H](CC(C)C)NC(=O)[C@H](C)NC(=O)[C@H](Cc2c[nH]c3ccccc23)NC(=O)[C@H](Cc2ccc(O)cc2)NC(=O)[C@H](CCC(=O)O)NC1=O)[C@@H](C)O [VIP-86] (Ac-KK[Ahx]TSF[R8]EYWALL[S5]ENY-NH2; staple 7-14),23.5 ± 1.4 nM
2,CC(C)C[C@@H]1NC(=O)[C@H](C)NC(=O)[C@H](Cc2c[nH]c3ccccc23)NC(=O)[C@H](Cc2ccc(O)cc2)NC(=O)[C@H](CCC(=O)O)NC(=O)[C@](C)(NC(=O)[C@H](Cc2ccccc2)NC(=O)[C@H](CO)NC(=O)[C@@H](NC(=O)CCCCCNC(=O)CCCC[C@@H]2SC[C@@H]3NC(=O)N[C@@H]32)[C@@H](C)O)CCCCCCC=CCCC[C@@](C)(C(=O)N[C@@H](CCC(=O)O)C(=O)N[C@@H](CC(N)=O)C(=O)N[C@@H](Cc2ccc(O)cc2)C(N)=O)NC(=O)[C@H](CC(C)C)NC1=O [VIP-87],46.2 ± 3.3 nM
3,CC(=O)N[C@@H](CCCCN)C(=O)N[C@@H](CCCCN)C(=O)N[C@@H](CCCCN)C(=O)NCCCCCC(=O)N[C@H](C(=O)N[C@@H](CO)C(=O)N[C@@H](Cc1ccccc1)C(=O)N[C@]1(C)CCCCCCC=CCCC[C@@](C)(C(=O)N[C@@H](CCC(=O)O)C(=O)N[C@@H](CC(N)=O)C(=O)N[C@@H](Cc2ccccc2)C(N)=O)NC(=O)[C@H](CC(C)C)NC(=O)[C@H](CC(C)C)NC(=O)[C@H](C)NC(=O)[C@H](Cc2c[nH]c3ccccc23)NC(=O)[C@H](Cc2ccc(O)cc2)NC(=O)[C@H](CCC(=O)O)NC1=O)[C@@H](C)O [VIP-115] (Ac-KKK[Ahx]TSF[R8]EYWALL[S5]ENF-NH2; staple 8-15),11.6 ± 1.2 nM
4,CC(=O)N[C@@H](CCCCN)C(=O)NCCCCCC(=O)N[C@H](C(=O)N[C@@H](CO)C(=O)N[C@@H](Cc1ccccc1)C(=O)N[C@]1(C)CCCCCCC=CCCC[C@@](C)(C(=O)N[C@@H](CCC(=O)O)C(=O)N[C@@H](CC(N)=O)C(=O)N[C@@H](Cc2ccccc2)C(N)=O)NC(=O)[C@H](CC(C)C)NC(=O)[C@H](CC(C)C)NC(=O)[C@H](C)NC(=O)[C@H](Cc2c[nH]c3ccccc23)NC(=O)[C@H](Cc2ccc(O)cc2)NC(=O)[C@H](CCC(=O)O)NC1=O)[C@@H](C)O [VIP-116],15.1 ± 1.7 nM
5,CC(=O)N[C@@H](CCCNC(=N)N)C(=O)N[C@@H](CCCNC(=N)N)C(=O)NCCCCCC(=O)N[C@H](C(=O)N[C@@H](CO)C(=O)N[C@@H](Cc1ccccc1)C(=O)N[C@]1(C)CCCCCCC=CCCC[C@@](C)(C(=O)N[C@@H](CCC(=O)O)C(=O)N[C@@H](CC(N)=O)C(=O)N[C@@H](Cc2ccccc2)C(N)=O)NC(=O)[C@H](CC(C)C)NC(=O)[C@H](CC(C)C)NC(=O)[C@H](C)NC(=O)[C@H](Cc2c[nH]c3ccccc23)NC(=O)[C@H](Cc2ccc(O)cc2)NC(=O)[C@H](CCC(=O)O)NC1=O)[C@@H](C)O [VIP-117] (Ac-RR[Ahx]TSF[R8]EYWALL[S5]ENF-NH2; staple 7-14),160 ± 14.6 nM
6,CC(=O)N[C@@H](CCCNC(=N)N)C(=O)NCCCCCC(=O)N[C@H](C(=O)N[C@@H](CO)C(=O)N[C@@H](Cc1ccccc1)C(=O)N[C@]1(C)CCCCCCC=CCCC[C@@](C)(C(=O)N[C@@H](CCC(=O)O)C(=O)N[C@@H](CC(N)=O)C(=O)N[C@@H](Cc2ccccc2)C(N)=O)NC(=O)[C@H](CC(C)C)NC(=O)[C@H](CC(C)C)NC(=O)[C@H](C)NC(=O)[C@H](Cc2c[nH]c3ccccc23)NC(=O)[C@H](Cc2ccc(O)cc2)NC(=O)[C@H](CCC(=O)O)NC1=O)[C@@H](C)O [VIP-118],39.5 ± 3.9 nM
